Reference: PMC7985297 (Communications Biology, 2021)
Values joined by “and” are separate entries in the source; they are usually repeats but may differ in a detail not shown here. Equal entries are not always repeated. “Also recorded” adds a separate entry of the source.

Assays:
LN95-D3 cells = experiment: Cell cycle analysis by flow cytometry, LN95-D3 subline; type: cell-based, human; conditions: LN95-D3, absence of androgen, 48 h
[1] = system: Pin1 and cell cycle proteins in LN95 cells; experiment: Western blot of Pin1 and cell cycle proteins in LN95 cells; conditions: for CyclinA2 protein level (Fig. 6a) / CyclinB1 protein level (Fig. 6a) / CyclinD1 protein level (Fig. 6a) / Pin1 protein level (Fig. 6a) / p21 protein level (Fig. 6a) / p27 protein level (Fig. 6a): relative to 0 μM = 1, replicate experiments by date
Protocol: Data shown are the means ± s.e.m. from 3–4 independent experiments. Statistical significance was determined by ANOVA using the Dunnett’s multiple comparisons test. *P < 0.05, **P < 0.01, ***P < 0.001.
For western blot analyses, membranes were blocked with 5% non-fat milk in phosphate-buffered saline containing 0.1% Tween-20 (PBS-T) and then incubated overnight at 4 °C with primary antibody (1:200–5000) in PBS-T containing 5% non-fat milk or 2% BSA. After incubation with the primary antibody, the membrane was washed three times with TBS-T, incubated with a horseradish peroxidase-conjugated antibody secondary antibody (1:5000–10,000) for 1–2 h at room temperature, and washed three times with PBS-T and two more times with PBS before chemiluminescence was detected with ECL Prime Reagent (GE Healthcare Life Science, Mississauga, ON). Western blot images were captured using the ChemiDoc MP Imaging System (Bio-Rad Laboratories, Hercules, CA) and quantified using ImageJ software.

[2] = system: Pin1, Cyclin D1, Skp2 and AR in LN95-D3 tumors; experiment: Western blot of harvested LN95-D3 xenograft tumors (Pin1, Cyclin D1, Skp2, AR); type: in vivo, mice; conditions: ATRA pellets compared to placebo
Protocol: Scale bars represent 5 mm (f) western blot analysis showing the expression of Pin1, Cyclin D1, Skp2, and AR from representative tumors. Quantification of the data is shown for g Pin1 and h Skp2, where the error bars represent the mean ± s.e.m.
All experiments involving animals conform to the relevant regulatory and ethical standards and were approved by the University of British Columbia Animal Care Committee (A18-0077). Metacam (1 mg/kg, 0.05 mL/10 g of body weight) was administered subcutaneously prior to any surgery. Animals were anesthetized with isoflurane and euthanized by CO2. Six–eight-week-old male (NOD-scid IL2Rgamma^null) mice were maintained in the Animal Care Facility at the British Columbia Cancer Research Centre. Mice were castrated 2 weeks before they were subcutaneously inoculated in the right flank with two million LN95-D3 cells in a 1:1 volume of matrigel (Corning Discovery Labware, Corning, NY). […] Tumors were excised 1 day after the last dose and prepared for western blot analysis and immunohistochemistry.

LN95 cells = experiment: Cell cycle analysis by flow cytometry, LN95; conditions: LN95, ATRA 5 and 10 μM, EPI-002 25 μM, 24 or 48 h
Protocol: After treatments, the cells were labeled with BrdU (10 μM) for 2 h and then trypsinized, washed, and fixed in 70% EtOH/PBS at −20 °C. Approximately 2.5–5.0 × 10^5 of fixed cells were labeled with fluorescein (FITC)-conjugated anti-BrdU antibody (B44; BD Biosciences) and the DNA content was stained with 7-AAD (Sigma). The data were collected with a BD FACSCalibur flow cytometer (BD Biosciences). FITC and 7-AAD fluorescence were detected in the FL1 and FL3 channels, respectively, using CellQuest Pro and analyzed by FlowJo V10 software (Ashland, Oregon). Pre-gating was performed on all samples by plotting FL3-W × FL3-H to exclude doublets from the analysis.

LNCaP cells = experiment: Senescence-associated β-galactosidase staining, LNCaP; type: cell-based, human; conditions: ATRA 10 µM, 3 days
Description: Supplementary Figure 6. […] ( a)
Staining of senescence-associated β-galactosidase (SA β-gal) activity in cell lines treated with vehicle
Original magnification ×100.
percentage of β-gal positive cells as means ± s.e.m. from 3 independent experiments, where at least
1,000 cells were scored for each group. (c) Representative Western blot showing the indicated cell […]

[3] = system: phosphorylated MAPK (p44 and p42) and STAT3 (Tyr705 and Ser727); experiment: Western blot of phosphorylated MAPK and STAT3 after IL-6 in LNCaP cells; type: cell-based, human; conditions: juglone 20 µM, IL-6 50 ng/mL 15 min
Protocol: (§1) Fig. 3 Pin1 interacts with the AR NTD and regulates transactivation. a, b Transactivation assays performed in LNCaP cells expressing a vector encoding the human AR NTD fused to a Gal4 DNA-binding domain (Gal4-ARN). […] Input samples show Pin1 expression from lysates before the pull-down. i Co-immunoprecipitation assay showing AR protein co-immunoprecipitated with STAT3 from LNCaP cells incubated with EPI-002 (EPI, 35 μM), juglone (JUG, 30 μM), or vehicle (VEH, DMSO), and IL-6 (50 ng/mL) for 6 h. j, k Levels of phosphorylated MAPK (isoforms p44 and p42) and phosphorylated STAT3 (Tyr705 and Ser727) from LNCaP cells pre-treated with juglone (20 µM) and then stimulated with IL-6 (50 ng/mL) for 15 min. Error bars show the mean ± s.e.m. *P < 0.05, **P < 0.01, ***P < 0.001; ns not significant.

YFP-AR fusion protein = target: T1, YFP-AR fusion protein (Homo sapiens, UniProt P10275); type: cell-based
T1 construct: expressed in transfected cells; host or cells: LNCaP
T1 sequence (P10275 whole entry, the tested form may be a part): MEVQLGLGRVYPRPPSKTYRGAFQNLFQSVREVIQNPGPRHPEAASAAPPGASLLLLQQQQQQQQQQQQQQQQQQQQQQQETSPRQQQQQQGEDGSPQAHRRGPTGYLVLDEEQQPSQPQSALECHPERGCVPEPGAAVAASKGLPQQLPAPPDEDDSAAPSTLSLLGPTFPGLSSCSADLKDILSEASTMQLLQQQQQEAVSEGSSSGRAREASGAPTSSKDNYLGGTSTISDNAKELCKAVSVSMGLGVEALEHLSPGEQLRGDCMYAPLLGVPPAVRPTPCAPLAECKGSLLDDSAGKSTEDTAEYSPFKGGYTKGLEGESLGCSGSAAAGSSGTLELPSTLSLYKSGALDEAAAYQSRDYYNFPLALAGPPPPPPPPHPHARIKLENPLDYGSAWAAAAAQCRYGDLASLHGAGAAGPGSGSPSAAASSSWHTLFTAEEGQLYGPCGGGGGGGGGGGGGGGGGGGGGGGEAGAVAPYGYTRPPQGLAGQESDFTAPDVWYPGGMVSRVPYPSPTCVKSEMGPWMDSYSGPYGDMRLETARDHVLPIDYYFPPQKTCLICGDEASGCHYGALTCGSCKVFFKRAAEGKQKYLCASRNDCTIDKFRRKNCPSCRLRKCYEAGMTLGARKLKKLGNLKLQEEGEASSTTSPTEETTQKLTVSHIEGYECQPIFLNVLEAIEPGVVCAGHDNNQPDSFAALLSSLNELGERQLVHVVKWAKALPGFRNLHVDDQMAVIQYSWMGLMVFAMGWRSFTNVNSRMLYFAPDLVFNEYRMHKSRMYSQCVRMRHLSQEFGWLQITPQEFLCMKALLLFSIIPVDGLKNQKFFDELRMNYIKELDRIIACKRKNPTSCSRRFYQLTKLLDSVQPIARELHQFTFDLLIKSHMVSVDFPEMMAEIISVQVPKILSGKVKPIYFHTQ
Protocol: Scores greater than 1 indicate nuclear localization. At least 50 cells were scored for each treatment.
AR translocation assays were performed by a modified protocol from Myung et al.[9]. Approximately 2.8 × 10^5 LNCaP cells were grown on coverslips in six-well plates and transiently transfected with 2 μg of an expression vector encoding a YFP-AR fusion protein. On the following day, cells were pre-treated with the indicated compounds for 1 h and stimulated with R1881 (1 nM) or a vehicle containing ethanol for 3 h. After incubating with compounds, cells were fixed with 4% paraformaldehyde, washed twice with PBS, and then counterstained with DAPI. Slides were examined on an Axiovert 200 Fluorescence Microscope (Zeiss, Oberkochen, Germany). The ratio of the YFP signal in the nucleus relative to the cytoplasm was quantified with ImageJ software. For each image, background fluorescence was measured and subtracted from experimental values. A total of at least 50 cells from nine images containing six or more cells per field were quantified to determine the nuclear to cytoplasmic YFP ratio for each treatment group.

[4] = target: T2, Gal4-ARN fragments and Gal4-AR234–391 constructs (Homo sapiens, UniProt P10275); experiment: Transactivation assay with Gal4-ARN fragments and Gal4-AR234–391 proline to glycine mutants; type: cell-based; conditions: juglone 20 µM, IL-6 50 ng/mL, 24 h
T2 construct: expressed in transfected cells; host or cells: LNCaP
T2 sequence (P10275 236-393): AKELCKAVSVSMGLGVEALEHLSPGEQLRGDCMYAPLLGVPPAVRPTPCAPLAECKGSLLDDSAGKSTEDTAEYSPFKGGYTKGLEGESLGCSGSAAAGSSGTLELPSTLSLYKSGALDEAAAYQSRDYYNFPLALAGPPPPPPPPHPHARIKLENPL
Protocol: as §1

[5] = system: Gal4-ARN fragments and Gal4-AR234–391 constructs; experiment: as above; type: cell-based, human; conditions: juglone 20 µM, IL-6 50 ng/mL, 24 h
Protocol: as §1

[6] = target: T3, Gal4-ARN fragments and Gal4-AR234–391 constructs (Homo sapiens, UniProt P10275, P259G); experiment: as above; type: cell-based; conditions: juglone 20 µM, IL-6 50 ng/mL, 24 h
T3 construct: expressed in transfected cells; host or cells: LNCaP
T3 sequence (P10275 236-393 P259G): as the sequence (P10275 236-393) above, with P24G counted along it
Protocol: as §1

[7] = target: T4, Gal4-ARN fragments and Gal4-AR234–391 constructs (Homo sapiens, UniProt P10275, P311G); experiment: as above; type: cell-based; conditions: juglone 20 µM, IL-6 50 ng/mL, 24 h
T4 construct: expressed in transfected cells; host or cells: LNCaP
T4 sequence (P10275 236-393 P311G): as the sequence (P10275 236-393) above, with P76G counted along it
Protocol: as §1

With `CC1=C(/C=C/C(C)=C/C=C/C(C)=C/C(=O)O)C(C)(C)CCC1` [ATRA, all-trans retinoic acid] as the compound, how does the “effect on cell cycle distribution” value (LN95-D3 cells) read?
The value was “reduced the S phase and increased the G1 population”.

What about the “CyclinA2 protein level (Fig. 6a)” value ([1]; 1 μM) of the same compound?
The value was 1 and 0.69 and 0.64.

What about the “CyclinB1 protein level (Fig. 6a)” value ([1]; 1 μM) of the same compound?
The value was 1.17 and 0.87 and 1.22.

And the “CyclinD1 protein level (Fig. 6a)” value ([1]; 1 μM)?
The value was 0.71 and 0.24 and 0.7 and 0.33.

And the “Pin1 protein level (Fig. 6a)” value ([1]; 1 μM)?
Its value is 0.8 and 0.7 and 0.86 and 0.56.

And the “p21 protein level (Fig. 6a)” value ([1]; 1 μM)?
Its value is 1.19 and 0.73 and 1.3.

What about the “p27 protein level (Fig. 6a)” value ([1]; 1 μM) of the same compound?
The value was 0.93 and 0.87 and 1.2.

What about the “CyclinA2 protein level (Fig. 6a)” value ([1]; 5 μM) of the same compound?
The value was 0.66 and 0.01 and 1.22.

And the “CyclinB1 protein level (Fig. 6a)” value ([1]; 5 μM)?
The value was 0.9 and 0.62 and 1.39.

And the “CyclinD1 protein level (Fig. 6a)” value ([1]; 5 μM)?
Its value is 0.34 and 0.13 and 0.42 and 0.23.

What about the “Pin1 protein level (Fig. 6a)” value ([1]; 5 μM) of the same compound?
The value was 0.63 and 0.26 and 0.56 and 0.35.

What about the “p21 protein level (Fig. 6a)” value ([1]; 5 μM) of the same compound?
The value was 0.81 and 0.2 and 1.37.

And the “p27 protein level (Fig. 6a)” value ([1]; 5 μM)?
The value was 1.19 and 1.12 and 1.3.

And the “CyclinA2 protein level (Fig. 6a)” value ([1]; 10 μM)?
Its value is 0.13 and 0 and 0.23.

And the “CyclinB1 protein level (Fig. 6a)” value ([1]; 10 μM)?
Its value is 0.63 and 0.58 and 0.55.

What about the “CyclinD1 protein level (Fig. 6a)” value ([1]; 10 μM) of the same compound?
The value was 0.01 and 0.35 and 0.23 and 0.05.

What about the “Pin1 protein level (Fig. 6a)” value ([1]; 10 μM) of the same compound?
The value was 0.56 and 0.13 and 0.39 and 0.14.

What about the “p21 protein level (Fig. 6a)” value ([1]; 10 μM) of the same compound?
Its value is 1.42 and 0.19 and 0.58.

What about the “p27 protein level (Fig. 6a)” value ([1]; 10 μM) of the same compound?
The value was 1.39 and 2.2 and 1.28.

What about the “effect on cellular Pin1 protein levels” value ([1]; LN95, 0–10 µM) of the same compound?
Its value is “dose-dependent decrease in Pin1 levels”.

What about the “effect on expression of cyclins D1, A2, B1” value ([1]; LN95, ATRA 0–10 µM) of the same compound?
Its value is “significantly decreased the expression of cyclin D1 and cyclin A2; also recorded: not cyclin B1”.

And the “effect on levels of CDK inhibitors p27Kip1 and p21Cip1” value ([1]; LN95, ATRA 0–10 µM)?
The value was “selectively increased the levels of cyclin-dependent kinase (CDK) inhibitor p27^Kip1 but not p21^Cip1”.

What about the “Pin1 (and cyclin D1) levels in xenografts” value [2] of the same compound?
The value was “decrease in Pin1 levels; also recorded: decreased levels of Pin1 and its target cyclin D1”.

What about the “effect on cell cycle / S phase population” value (LN95 cells) of the same compound?
The value was “reduced the S phase population in a dose- and time-dependent manner”.

What about the “effect on percentage of SA β-gal-positive cells” value (LNCaP cells) of the same compound?
The value was “significantly increased the percentage of SA β-gal-positive cells for LNCaP and LN95 cells”.

With `O=C1C=CC(=O)c2c(O)cccc21` [juglone] as the compound, how does the “effect on IL-6-induced phosphorylation of MAPK and STAT3” value [3] read?
The value was “did not prevent phosphorylation of MAPK (isoforms p44 and p42) or STAT3 (Tyr705 and Ser727)”.

What about the “YFP-AR localization, ratio of YFP intensity nucleus to cytosol (Fig. 2h), EtOH” value (YFP-AR fusion protein) of the same compound?
Its value is 0.76 and 0.781 and 0.791.

What about the “YFP-AR localization, ratio of YFP intensity nucleus to cytosol (Fig. 2h), R1881” value (YFP-AR fusion protein) of the same compound?
The value was 1.983 and 2.303 and 2.076.

What about the “transactivation, AR234-391 (Fig. 3e)” value [4] of the same compound?
Its value is 5.441 and 3.73 and 3.732.

What about the “effect on IL-6-induced transactivation of Gal4-AR234–391 proline to glycine mutants” value [5] of the same compound?
The value was “inhibited the P257G and P309G mutants to levels that were comparable to wild-type; also recorded: had no effect on the P257G/P309G double mutant”.

What about the “effect on IL-6-induced transactivation of Gal4-AR NTD fragments (construct named in the value)” value [5] of the same compound?
The value was “inhibited transactivation of AR 234–391 and intact AR NTD (1–558); also recorded: only had a modest effect on AR 392–558; also recorded: did not inhibit the activity of Gal4DBD (empty vector) or AR 1–233”.

What about the “transactivation, Gal4DBD (Fig. 3f)” value [5] of the same compound?
The value was 0.951 and 0.829 and 0.839.

And the “transactivation, Gal4-AR234–391 P257G (Fig. 3f)” value [6]?
Its value is 5.034 and 6.44 and 8.824.

And the “transactivation, Gal4-AR234–391 P309G (Fig. 3f)” value [7]?
The value was 4.289 and 4.331 and 7.708.
